Measurements taken from article PMC7010025 (EFSA Journal, 2017).
Values after ≈ are worked out from the molar mass of the structure shown. “Also recorded” adds a separate entry of the source. Read-outs that look alike come from different tables or passages of the source.

Assays:
[1] = system: S. Typhimurium TA98, TA100, TA1535, TA1537 Escherichia coli WP2uvrA; settings: ref Nucro‐Technics, 2011a, cited from earlier work; for Increase in colony counts per plate vs negative controls: positive controls
[2] = cited from earlier work; for Decarboxylation product concentration: starting batch held ~0.4% S9379
[3] = system: primary human lymphocytes; settings: ref Nucro‐Technics, 2011b, cited from earlier work; for Cells with structural chromosomal aberrations: 20 h without S9‐mix
[4] = cited from earlier work; for Dry powder stability: 100°C up to 24 h
[5] = oral dosing in rat; ref Senomyx, 2011b; cited from earlier work
Margins of safety = settings: child; developmental toxicity NOAEL vs chronic APET
[6] = ref applicant dossier, cited from earlier work
[7] = system: Salmonella Typhimurium strains, TA98 and TA100; settings: up to 5,000 μg/plate, ref BioReliance, 2011, cited from earlier work
[8] = system: bone marrow polychromatic erythrocytes; settings: ref Nucro‐Technics, 2011c, cited from earlier work
[9] = ref Senomyx, 2011a, cited from earlier work
[10] = read-out: Combined mean Cmax; diet 100 mg/kg per day, day 7; ref MPI, 2011b; cited from earlier work
[11] = rat, 60‐min incubation; ref PharmOptima, 2011; cited from earlier work
[12] = human, 60‐min incubation; ref PharmOptima, 2011; cited from earlier work
[13] = 10 mg/kg oral, ref Senomyx, 2013, cited from earlier work; for Average recovered from faeces and urine: 72‐h collection
[14] = male and female rats, highest dose tested; ref MPI, 2011b; cited from earlier work
[15] = gavage, gestation days 6 through 20; ref WIL Research, 2012a; cited from earlier work
[16] = ref WIL Research, 2012b; cited from earlier work
[17] = cake, 177°C 30 min, ref Senomyx, 2016
[18] = cookie, 204°C 8 min, ref Senomyx, 2016
[19] = hard candy, 149°C ~30 min, ref Senomyx, 2016
[20] = sulfate salt in sugar cookie, 177°C 10 min, 18 mg/kg
[21] = cake, 177°C 30 min, nominal 5 mg/kg, ref Senomyx, 2016
[22] = cookie, 204°C 8 min, nominal 5 mg/kg, ref Senomyx, 2016
[23] = hard candy, 149°C ~30 min, nominal 15 mg/kg, ref Senomyx, 2016
[24] = 100 mg/kg per day gavage, day 7

Nc1ccc2cc3ccccc3cc2c1 [2‐aminoanthracene]
Increase in colony counts per plate vs negative controls ([1]; experiments with S9‐mix): ≥ 3.1 fold

O=[N+]([O-])c1ccc2c(c1)Cc1ccccc1-2 [2‐nitrofluorene]
Increase in colony counts per plate vs negative controls ([1]; experiments without S9‐mix): ≥ 3.1 fold

Nc1c2ccccc2nc2ccccc12 [9‐aminoacridine]
Increase in colony counts per plate vs negative controls ([1]; experiments without S9‐mix): ≥ 3.1 fold

Cc1cc(N)c2c(OCC(C)(C)C(=O)NC(C)C)cccc2n1 [S9379, 4‐amino‐5‐(3‐(isopropylamino)‐2,2‐dimethyl‐3‐oxopropoxy)‐2‐methylquinoline]
Decarboxylation product, % of [FL‐no: 16.130] nominal [2, 17]: 0.82%
Decarboxylation product concentration [2, 17]: 0.041 mg/kg
Breakdown product S9379, % of nominal [FL‐no: 16.130] concentration ([2]; cake, cookie and candy prototypes): < 1%
Decarboxylation product, % of [FL‐no: 16.130] nominal [2, 18]: 0.86%
Decarboxylation product concentration [2, 18]: 0.043 mg/kg
Decarboxylation product, % of [FL‐no: 16.130] nominal [2, 19]: 0.94%
Decarboxylation product concentration [2, 19]: 0.14 mg/kg
Concentration of potential degradant S9379 ([2]; sulfate salt in hard candy, nominal 24 mg/kg): 0.04 mg/kg
Concentration of potential degradant S9379 [2, 20]: 0.02 mg/kg
S9379, % of nominal sulfate salt concentration [2, 20]: 0.1%

Cc1nc2cccc(OCC(C)(C)C(=O)NC(C)C)c2c(N)c1C(=O)[O-].[Na+] [[FL‐no: 16.130] sodium salt, sodium 4‐amino‐5‐(3‐(isopropylamino)‐2,2‐dimethyl‐3‐oxopropoxy)‐2‐methylquinoline‐3‐carboxylate]
Toxicity to tester strains ([1]; any concentration including 5,000 μg per plate): No toxicity was observed
Bacterial gene mutation assay result ([1]; plate incorporation and pre‐incubation, with and without metabolic activation, up to 5,000 μg/plate): Negative
Cells with chromosomal aberrations ([3]; 3 h with S9‐mix, 125 μg/mL (control 3.5%)): 5.0%
Cells with chromosomal aberrations ([3]; 3 h with S9‐mix, 250 μg/mL): 4.0%
Cells with chromosomal aberrations ([3]; 3 h without S9‐mix, 250 μg/mL): 2.0%
Cells with structural chromosomal aberrations ([3]; 125 μg/mL (control 1.5%)): 2.0%
Cells with structural chromosomal aberrations ([3]; 250 μg/mL): 1.0%
Cells with structural chromosomal aberrations ([3]; 500 μg/mL): 3.0%

Cc1nc2cccc(OCC(C)(C)C(=O)NC(C)C)c2c(N)c1C(=O)O.Cc1nc2cccc(OCC(C)(C)C(=O)NC(C)C)c2c(N)c1C(=O)O.O.O.O=S(=O)(O)O [[FL‐no: 16.130] sulfate salt, 4‐Amino‐5‐(3‐(isopropylamino)‐2,2‐dimethyl‐3‐oxopropoxy)‐2‐methylquinoline‐3‐carboxylic acid hemisulfate monohydrate salt]
Dry powder stability ([4]; ref Senomyx, 2016): stable
Recovery ([2]; sulfate salt in hard candy, 149°C ~30 min, nominal 24 mg/kg): 104%
Recovery [2, 20]: 100%
Bioequivalence to the candidate substance (systemic exposure) [5]: equivalent

Cc1nc2cccc(OCC(C)(C)C(=O)NC(C)C)c2c(N)c1C(=O)O [[FL‐no: 16.130], 4‐Amino‐5‐(3‐(isopropylamino)‐2,2‐dimethyl‐3‐oxopropoxy)‐2‐methylquinoline‐3‐carboxylic acid]
Margin of safety (Margins of safety): 27,000
Solubility in ethanol ([6]; 95% ethanol): 1,600 mg/L
Solubility ([6]; in water): 700 µg/mL (≈ 1950 µM)
Stability in aqueous solution ([4]; 40°C, pH 2.8, 4.0 and 7.1, 4 weeks, ref applicant dossier): stable
Dry powder stability ([4]; ref Senomyx, 2016): stable
Dry powder stability at 175°C ([4]; 175°C, S9379 only decomposition product, ref Senomyx, 2016): thermal degradation may take place
Mean measured concentration [2, 21]: 5.8 mg/kg
Measured concentration [2, 21]: 5.1 to 6.1 mg/kg
Stability in model product prototypes ([2]; cake, cookie and candy, typical processing conditions): stable
Mean measured concentration [2, 22]: 5.4 mg/kg
Measured concentration [2, 22]: 5.1 to 5.8 mg/kg
Mean measured concentration [2, 23]: 13.1 mg/kg
Measured concentration [2, 23]: 12.7 to 13.4 mg/kg
Recovery, % of nominal concentration [2, 23]: 87%
Bacterial gene mutation assay result ([7]; TA98, TA100, with and without S9‐mix): not mutagenic; also recorded: Negative
Bacterial toxicity [7]: did not result in bacterial toxicity
PCE/NCE ratio ([8]; any dose tested): No statistically significant decrease
In vivo micronucleus test result ([8]; single oral gavage, 500, 1,000 and 2,000 mg/kg bw, 24, 36, 48 h, no evidence of bone marrow exposure): did not induce micronuclei; also recorded: Negative
Combined mean AUC0–24 [9, 24]: 232 ng·h/mL
Combined mean Cmax [9, 24]: 154 ng/mL
Oral bioavailability (%F) ([9]; oral gavage, male and female rats, listed as candidate substance): 0.53–1.19%
Accumulation in plasma ([9]; repeated oral dosing, seven consecutive days): No significant accumulation
Cmax [10]: 317 nM
Metabolism by microsomes [11]: not metabolised
Metabolism by microsomes [12]: not metabolised
Recovered in faeces [13]: 75.5–99.5%
Recovered in urine [13]: 0.1–0.6%
Average recovered from faeces and urine ([13]; female rats): 91.4%
Average recovered from faeces and urine ([13]; male rats): 86.2%
NOAEL following 13 weeks of dietary administration [14]: 100 mg/kg bw per day
Result, dose range‐finding developmental toxicity study [15]: 1,000 mg/kg bw per day
NOAEL, developmental toxicity study in the rat [16]: 1,000 mg/kg bw per day

c1ccc2c(c1)cc1ccc3cccc4ccc2c1c34 [benzo[α]pyrene]
Increase in colony counts per plate vs negative controls ([1]; experiments with S9‐mix): ≥ 3.1 fold

O=P1(N(CCCl)CCCl)NCCCO1 (stereo not shown) [cyclophosphamide monohydrate]
Increase in colony counts per plate vs negative controls ([1]; experiments with S9‐mix): ≥ 3.1 fold

COS(C)(=O)=O [methyl methanesulfonate]
Increase in colony counts per plate vs negative controls ([1]; experiments without S9‐mix): ≥ 3.1 fold

[N-]=[N+]=[N-].[Na+] [sodium azide]
Increase in colony counts per plate vs negative controls ([1]; experiments without S9‐mix): ≥ 3.1 fold
